These are literature values, as cited in US20160338997A1, “KELOID REDUCTION USING TOPICAL ALLANTOIN” (Scioderm, Inc., priority 2013, published 2016).

For the series the following is noted: emulsion pH 6.8 to 7.5; with time and in accelerated stability tests at 40° C.

Turning to `NC(=O)NC1NC(=O)NC1=O` (stereo not shown) [allantoin], the degradation of allantoin result was “degrades significantly”.
